Reference: US4588718A, “Carboxy containing ester prodrugs of corticosteroids” (The Upjohn Company, priority 1984, dated 1986)

Tests used:
[1] = Bioconversion to the parent steroid in vivo (blood levels of test compound and parent steroid); settings: four female monkeys, dose equivalent to 7.5 mg/kg, injection, blood samples 0 to 8 hours; compared with methylprednisolone hemisuccinate
Procedure: Since the compounds of Formula I are prodrugs of the parent corticosteroids, their efficacy depends on bioconversion to liberate the free corticoid in vivo. […] Four female monkeys having synchronized menstrual cycles were given on separate days three days apart doses of the compound of Examples 1 and 2 and methylprednisolone hemisuccinate equivalent to 7.5 mg/kg. Prior to dosing the monkeys were fasted overnight and each was anesthetized during dosing. A few mls of 0.01μ ion strength pH 5 sodium acetate buffer was added to the test compound and 1N sodium hydroxide was added slowly with rapid stirring until all the solids went into solution just prior to injection. Blood samples were withdrawn at times 0, 1/12, 1/4, 1, 2, 4 and 8 hours from administration of test compound and levels of test compound and parent steroid were measured.

physchem = type: physicochemical; settings: water, pH 4.8, water
Text: The compounds of this invention tend to be free flowing non-hygroscopic crystalline solids when in the acid form. While the aqueous solubility of these prodrugs is limited at very low pH values, these compounds become very soluble at pH values around 5 or higher. In this pH range the prodrugs self-associate to form micellar solutions.

[2] = type: physicochemical; settings: for t 90% (time for 10% hydrolysis): 25° C., dilute aqueous solution, at the pH of optimum stability (Example 1: pH 4.7; Example 2: pH 4.6)
Procedure: The most important reaction affecting shelf-life is hydrolysis of the ester or carbonate linkage. From the hydrolysis rate constants determined at 25° C. at various pH values for dilute aqueous solutions of the compounds of this invention, estimates of ^t 90% (time for 10% hydrolysis) may be calculated. Such values, calculated at the pH of optimum stability, for the compounds of Examples 1 and 2 are listed in Table I. The actual shelf-life of formulations of the above compounds would be expected to differ from the above estimates for several reasons. (1) The solubility of the parent corticosteroid formed on hydrolysis may be exceeded prior to 10% degradation of the ester. Micelle formation by the intact prodrugs results in solubilization of free corticosteroid thereby prolonging shelf-life. The degree of solubilization varies with the ester concentration, nature of the pro-moiety, and the structure of the corticosteroid. (2) Other degradation reactions besides hydrolysis may be expected to occur. These should in general be diminished due to micelle formation and can in some cases be controlled by the addition of chelating agents, antioxidants, etc. (3) Micelle formation in concentrated solutions also results in stabilization of the ester linkage toward base catalyzed hydrolysis. For example, the base catalyzed hydrolysis rate constant in a 0.267M solution of the compound of Example 1 is less than 20% the rate constant in a 5×10^-4 M solution.

| SMILES | conversion to the parent steroid (methylprednisolone) in vivo [1] | solubility (physchem) | pH of optimum stability [2] | base catalyzed hydrolysis rate constant in a 0.267M solution relative to the rate constant in a 5×10^-4 M solution ([2]; 0.267M vs 5×10^-4 M solution) | t 90% (time for 10% hydrolysis) [2] |
| --- | --- | --- | --- | --- | --- |
| C[C@H]1C[C@@H]2[C@H]([C@@H](O)C[C@@]3(C)[C@H]2CC[C@]3(O)C(=O)COC(=O)CCCCCS(=O)(=O)CC(=O)O)[C@@]2(C)C=CC(=O)C=C12 [Example 1, methylprednisolone, 21-[6'-(carboxymethylsulfonyl)hexanoate]] | to at least the same extent as was methylprednisolone hemisuccinate | > 160 mg/mL | 4.7 | less than 20% | 2.0 years |
| C[C@H]1C[C@@H]2[C@H]([C@@H](O)C[C@@]3(C)[C@H]2CC[C@]3(O)C(=O)COC(=O)CCCCC[S+]([O-])CC(=O)O)[C@@]2(C)C=CC(=O)C=C12 (some centres unmarked) [Example 2, methylprednisolone-21-[6'-(carboxymethylsulfinyl)hexanoate]] | to at least the same extent as was methylprednisolone hemisuccinate | – | 4.6 | – | 0.93 years |
